{"source": "patent US20170247446A1", "about": "“TARGETING K-RAS-MEDIATED SIGNALING PATHWAYS AND MALIGNANCY BY ANTI-hLIF ANTIBODIES” (The Regents of the University of California, priority 2014, published 2017)", "tested_on": "PANC2.03 subcutaneous tumors", "experiment": "Drug sensitization assay, PANC2.03 subcutaneous tumors in nude mice", "type": "in vivo", "experimental": "FIG. 5. […] (B) 50,000 cells of PANC2.03 were subcutaneously injected into nude mice for the tumor initiation assay. The anti-LIF AB (clone D25.1.4) was given before the tumor inoculation at 10 mg/kg. The treatment was given three times a week. […] (C) In drug sensitization assay, 0.2×10^6 cells of PANC2.03 cells were first subcutaneously injected into nude mice. […] The mice were randomly separated into 4 different groups: control, Ab only, gemcitabine only, and combination. […] (D) Tumor volume changing curve in the PANC2.03 subcutaneous tumors with the treatment model of (C). […] Tumor proliferation rate=(Tumor vol on the later day−Tumor vol on the initial day)/Tumor vol on the initial day*100. […] The response to gemcitabine was analyzed in pancreatic cancer cells. […] The effects of LIF-neutralizing antibody were also tested in mouse models. […] In a drug sensitization assay, PANC2.03 cells were subcutaneously injected into nude mice to form tumors, then the mice were treated with anti-LIF antibody, gemcitabine, or a combination of anti-LIF antibody and gemcitabine."}
{"smiles": "Nc1ccn([C@@H]2O[C@H](CO)[C@@H](O)C2(F)F)c(=O)n1", "note": "[gemcitabine]", "values": [{"measurement": "complete regressions of tumors", "setting": "0.2×10^6 PANC2.03 cells s.c., tumors formed within 14 days post-inoculation, then treatment, FIG. 5C", "result": "did not lead to the tumor regressions"}, {"measurement": "tumor proliferation rate", "setting": "(Tumor vol on the later day−Tumor vol on the initial day)/Tumor vol on the initial day*100, FIG. 5E", "result": "still had a positive growth rate"}, {"measurement": "fold change on tumor volumes", "setting": "FIG. 5F", "result": "still had a positive growth rate"}]}
